These are literature values, as cited in US20030136407A1, “Liquid composition to be vaporized for inhibiting increase in blood sugar level, vaporizer for the same and use of the same” (priority 1999, published 2003).

The test system of this data set is Ehrlich Ascites Tumour Cells. The note with it: in vitro; Chem. Pharm. Bull. 41(12) 2129-2131 (1993).

Consider `C[C@H]1[C@H](C)CC[C@]2(C(=O)O)CC[C@]3(C)C(=CC[C@@H]4[C@@]5(C)C[C@@H](O)[C@H](O)C(C)(C)[C@@H]5CC[C@]43C)[C@H]12` [corosolic acid], for which the “activation of the mobility of grape sugar” value is reported as “activates the mobility of grape sugar”.
